Measurements as given in DBAASP.
Converted amounts (≈) assume the structure as drawn. One block for each molecule: values may come before it.

Legend:
Test in all cases: ≥ marks a high value that may be exact or a test limit, other limits are often not marked, values filed in µg/mL are converted to µM
Candida albicans MDM8 = tested on: Candida albicans MDM8
Micrococcus luteus A270 = tested on: Micrococcus luteus A270
Escherichia coli SBS 363 = tested on: Escherichia coli SBS 363
[1] = tested on: Bacillus anthracis Sterne 34F2
[2] = tested on: Burkholderia thailandensis
[3] = tested on: Bacillus subtilis ATCC 9372
[4] = tested on: Salmonella enterica subsp. enterica serovar Enteritidis
[5] = tested on: Staphylococcus aureus ATCC 43300
[6] = tested on: Staphylococcus aureus ATCC 29213
[7] = tested on: Escherichia coli ATCC 25922
Escherichia coli = tested on: Escherichia coli
Salmonella sp. = tested on: Salmonella sp.
Yersinia enterocolitica = tested on: Yersinia enterocolitica
[8] = tested on: Pseudomonas aeruginosa H103
[9] = tested on: Staphylococcus aureus C623
[10] = tested on: Enterococcus faecium mic80
[11] = tested on: Staphylococcus aureus ATCC 25923
[12] = tested on: Pseudomonas aeruginosa LES400
[13] = tested on: Escherichia coli ESBL 63103
[14] = tested on: Pseudomonas aeruginosa 213
Candida albicans C627 = tested on: Candida albicans C627
Escherichia coli BL21AI = tested on: Escherichia coli BL21AI
[15] = tested on: Micrococcus luteus ATCC 10240
Candida albicans = tested on: Candida albicans
Saccharomyces cerevisiae = tested on: Saccharomyces cerevisiae
Streptococcus mutans = tested on: Streptococcus mutans
Cryptococcus neoformans = tested on: Cryptococcus neoformans
Salmonella typhimurium = tested on: Salmonella typhimurium
Pseudomonas putida = tested on: Pseudomonas putida
Serratia marcescens = tested on: Serratia marcescens
Staphylococcus aureus = tested on: Staphylococcus aureus
Bacillus subtilis = tested on: Bacillus subtilis
Streptococcus pneumoniae = tested on: Streptococcus pneumoniae
[16] = tested on: Mycobacterium tuberculosis H37Rv

SMILES: CC[C@H](C)[C@H](NC(=O)[C@H](CC(C)C)NC(=O)[C@H](CO)NC(=O)[C@H](CC(C)C)NC(=O)[C@H](Cc1ccccc1)NC(=O)[C@@H](N)CO)C(=O)N[C@@H](CCCN=C(N)N)C(=O)N[C@@H](CCCCN)C(=O)N[C@@H](CC(C)C)C(=O)N[C@H](C(=O)N[C@H](C(N)=O)[C@@H](C)O)[C@@H](C)CC [SFLSLIRKLIT]
MIC (Candida albicans MDM8): 0.78 µM (≈ 1.01 µg/mL)
MIC (Micrococcus luteus A270): 0.78 µM (≈ 1.01 µg/mL)
MIC (Escherichia coli SBS 363): 1.56 µM (≈ 2.01 µg/mL)

SMILES: CC[C@H](C)[C@H](NC(=O)[C@H](Cc1ccc(O)cc1)NC(=O)CNC(=O)[C@@H](NC(=O)[C@@H](NC(=O)CNC(=O)[C@@H](NC(=O)[C@H](C)NC(=O)[C@H](C)NC(=O)CNC(=O)CNC(=O)[C@@H](N)CC(C)C)[C@@H](C)O)C(C)C)[C@@H](C)CC)C(=O)N[C@@H](CO)C(=O)N[C@@H](CC(N)=O)C(=O)N[C@@H](CCC(N)=O)C(=O)N[C@H](C(=O)N[C@@H](CS)C(=O)N1CCC[C@H]1C(=O)N[C@H](C(=O)N[C@H](C(=O)N[C@@H](C)C(=O)N[C@@H](CS)C(=O)N[C@H](C(=O)N[C@@H](CCCN=C(N)N)C(=O)N[C@@H](C)C(=O)N[C@@H](CS)C(=O)O)[C@@H](C)O)[C@@H](C)O)[C@@H](C)O)[C@@H](C)O [LGGAATGVIGYISNQTCPTTACTRAC]
MIC [1]: ≥ 100 µM
MIC [2]: ≥ 50 µM
MIC [3]: ≥ 100 µM

SMILES: CC[C@H](C)[C@H](NC(=O)[C@H](CCCCN)NC(=O)[C@H](C)NC(=O)CNC(=O)[C@@H](NC(=O)[C@H](CCCCN)NC(=O)[C@@H](NC(=O)[C@H](CCCCN)NC(=O)[C@H](C)NC(=O)CNC(=O)[C@@H](NC(=O)[C@H](CCCCN)NC(=O)[C@@H](NC(=O)[C@H](CCCCN)NC(=O)[C@H](C)NC(=O)CNC(=O)[C@@H](NC(=O)[C@@H](N)CCCCN)[C@@H](C)CC)[C@@H](C)CC)[C@@H](C)CC)[C@@H](C)CC)[C@@H](C)CC)C(=O)O [KIGAKIKIGAKIKIGAKI]
MIC [1]: ≥ 100 µM
MIC [2]: ≥ 50 µM
MIC [3]: 31 µM (≈ 57.4 µg/mL)

SMILES: CC[C@H](C)[C@H](NC(=O)[C@H](CCC(N)=O)NC(=O)[C@@H](N)CCCN=C(N)N)C(=O)N[C@@H](CCCN=C(N)N)C(=O)N[C@@H](CCCN=C(N)N)C(=O)N[C@H](C(=O)N[C@H](C(=O)N[C@@H](CCC(N)=O)C(=O)N[C@@H](CCCN=C(N)N)C(N)=O)[C@@H](C)CC)[C@@H](C)CC [RQIRRIIQR]
MIC [4]: ≥ 40.4 µM
MIC [5]: > 40.4 µM
MIC [6]: > 40.4 µM
MIC [7]: > 40.4 µM
MIC (Escherichia coli): > 40.4 µM
MIC (Salmonella sp.): ≥ 40.4 µM
MIC (Yersinia enterocolitica): ≥ 40.4 µM

SMILES: CC[C@H](C)[C@H](N)C(=O)N[C@@H](CCCCN)C(=O)N[C@@H](CCCCN)C(=O)N[C@@H](CCCN=C(N)N)C(=O)N[C@@H](Cc1c[nH]c2ccccc12)C(=O)N[C@@H](Cc1c[nH]c2ccccc12)C(=O)N[C@@H](Cc1c[nH]c2ccccc12)C(=O)N[C@@H](Cc1ccccc1)C(=O)N[C@@H](CCCN=C(N)N)C(=O)O [IKKRWWWFR]
MIC [8]: ≥ 91.1 µM
MIC [9]: 22.8 µM (≈ 32 µg/mL)
MIC [10]: ≥ 45.5 µM
MIC [11]: 22.8 µM (≈ 32 µg/mL)
MIC [12]: ≥ 91.1 µM
MIC [13]: ≥ 45.5 µM
MIC [14]: ≥ 91.1 µM
MIC (Candida albicans C627): ≥ 91.1 µM

SMILES: CC[C@H](C)[C@H](NC(=O)[C@H](Cc1ccc(O)cc1)NC(=O)[C@@H](NC(=O)[C@@H]1CCCN1C(=O)[C@H](CCCN=C(N)N)NC(=O)[C@H](CC(N)=O)NC(=O)[C@H](CC(N)=O)NC(=O)CN)C(C)C)C(=O)N1CCC[C@H]1C(=O)N[C@@H](CCC(N)=O)C(=O)N1CCC[C@H]1C(=O)N[C@@H](CCCN=C(N)N)C(=O)N1CCC[C@H]1C(=O)N1CCC[C@H]1C(=O)N[C@@H](Cc1cnc[nH]1)C(=O)N1CCC[C@H]1C(=O)N[C@@H](C)C(=O)N[C@@H](CC(C)C)C(N)=O [GNNRPVYIPQPRPPHPAL]
MIC (Escherichia coli BL21AI): ≥ 61.8 µM
MIC [15]: ≥ 61.8 µM

SMILES: CC[C@H](C)[C@H](NC(=O)CNC(=O)[C@H](CO)NC(=O)[C@H](CC(C)C)NC(=O)[C@@H](NC(=O)[C@H](CCCN=C(N)N)NC(=O)CNC(=O)[C@@H](NC(=O)[C@H](CC(C)C)NC(=O)[C@@H]1CCCN1C(=O)[C@H](CC(C)C)NC(=O)[C@@H](N)Cc1ccccc1)[C@@H](C)CC)C(C)C)C(=O)N[C@@H](CC(C)C)C(=O)O [FLPLIGRVLSGIL]
MIC [1]: ≥ 100 µM
MIC [2]: ≥ 50 µM
MIC [3]: ≥ 100 µM

Continued, values first:

MIC [8]: 1.38 µM (≈ 2 µg/mL)
MIC [9]: 2.77 µM (≈ 4 µg/mL)
MIC [10]: 11.1 µM (≈ 16 µg/mL)
MIC [11]: 2.77 µM (≈ 4 µg/mL)
MIC [12]: 11.1 µM (≈ 16 µg/mL)
MIC [13]: 11.1 µM (≈ 16 µg/mL)
MIC [14]: 11.1 µM (≈ 16 µg/mL)
MIC (Candida albicans C627): 2.77 µM (≈ 4 µg/mL)
SMILES: CC(C)C[C@H](NC(=O)[C@H](Cc1c[nH]c2ccccc12)NC(=O)[C@H](CCCN=C(N)N)NC(=O)[C@H](Cc1c[nH]c2ccccc12)NC(=O)[C@H](Cc1c[nH]c2ccccc12)NC(=O)[C@H](CCCCN)NC(=O)[C@H](CCCCN)NC(=O)[C@H](Cc1c[nH]c2ccccc12)NC(=O)[C@@H](N)CCCN=C(N)N)C(=O)O [RWKKWWRWL]

MIC [4]: ≥ 36 µM
MIC [5]: > 36 µM
MIC [6]: > 36 µM
MIC [7]: > 36 µM
MIC (Escherichia coli): > 36 µM
MIC (Salmonella sp.): ≥ 36 µM
MIC (Yersinia enterocolitica): ≥ 36 µM
SMILES: CC[C@H](C)[C@H](NC(=O)[C@H](CCC(N)=O)NC(=O)[C@@H](N)CCCN=C(N)N)C(=O)N[C@@H](CCCN=C(N)N)C(=O)N[C@@H](CCCN=C(N)N)C(=O)N[C@@H](Cc1c[nH]c2ccccc12)C(=O)N[C@@H](Cc1c[nH]c2ccccc12)C(=O)N[C@@H](CCSC)C(=O)N[C@@H](CCCN=C(N)N)C(N)=O [RQIRRWWMR]

MIC (Candida albicans): 48.1 µM (≈ 64 µg/mL)
MIC (Saccharomyces cerevisiae): ≥ 96.2 µM
MIC (Streptococcus mutans): 24 µM (≈ 32 µg/mL)
MIC (Cryptococcus neoformans): ≥ 96.2 µM
MIC (Salmonella typhimurium): 24 µM (≈ 32 µg/mL)
MIC (Pseudomonas putida): ≥ 48.1 µM
MIC (Serratia marcescens): ≥ 48.1 µM
MIC (Staphylococcus aureus): 48.1 µM (≈ 64 µg/mL)
MIC (Escherichia coli): 24 µM (≈ 32 µg/mL)
MIC (Bacillus subtilis): 24 µM (≈ 32 µg/mL)
MIC (Streptococcus pneumoniae): ≥ 48.1 µM
SMILES: CC(C)C[C@H](NC(=O)[C@H](CC(C)C)NC(=O)[C@H](CCCN=C(N)N)NC(=O)[C@H](Cc1cnc[nH]1)NC(=O)[C@@H](NC(=O)[C@H](CCCN=C(N)N)NC(=O)CNC(=O)[C@@H](NC(=O)[C@@H]1CCCN1)C(C)C)C(C)C)C(=O)N[C@@H](CCCN=C(N)N)C(=O)N[C@@H](CCCCN)C(=O)O [PVGRVHRLLRK]

MIC [16]: ≥ 60.7 µM
SMILES: CC[C@H](C)[C@H](NC(=O)[C@H](CC(N)=O)NC(=O)[C@H](C)NC(=O)[C@H](CCCN=C(N)N)NC(=O)[C@H](Cc1ccccc1)NC(=O)[C@H](CCC(=O)O)NC(=O)[C@H](Cc1ccccc1)NC(=O)[C@H](Cc1ccc(O)cc1)NC(=O)[C@H](Cc1ccccc1)NC(=O)CNC(=O)[C@@H]1CCCN1C(=O)[C@@H]1CCCN1C(=O)[C@@H](N)CCCN=C(N)N)C(=O)N[C@H](C(=O)N1CCC[C@H]1C(=O)N[C@@H](Cc1ccc(O)cc1)C(=O)N[C@@H](CC(C)C)C(=O)NCC(=O)N[C@@H](CCCN=C(N)N)C(=O)N[C@@H](CCCN=C(N)N)C(=O)O)[C@@H](C)CC [RPPGFYFEFRANIIPYLGRR]
